Laboratory results published in ChEMBL document CHEMBL6153089, “Design, Synthesis, and Biological Evaluation of Thieno[3,2-d]pyrimidine Derivatives as the First Bifunctional PI3Kδ Isoform Selective/Bromodomain and Extra-Terminal Inhibitors” (J Med Chem, 2025).

What was measured:
[1] = molecular target: T1, Bromodomain-containing protein 4 (Homo sapiens, UniProt O60885); test: Inhibition of His-tagged BRD4-BD1 (unknown origin) at 10 nM incubated for 30 mins by Alphascreen assay relative to control
[2] = molecular target: PI3-kinase p110-delta/p85-alpha (Homo sapiens) (UniProt P27986+O00329); test: Inhibition of p110delta/p85alpha (unknown origin) at 100 nM incubated for 2 hrs in presence of ATP by ADP-kinaseGlo reagent based assay relative to control; type: protein-complex assay
[3] = molecular target: PI3-kinase p110-delta/p85-alpha (Homo sapiens, UniProt O00329); test: Inhibition of p110delta/p85alpha (unknown origin) incubated for 2 hrs in presence of ATP by ADP-kinaseGlo reagent based assay; type: protein-complex assay
[4] = molecular target: T1, Bromodomain-containing protein 4; test: Inhibition of His-tagged BRD4-BD1 (unknown origin) incubated for 30 mins in presence of ATP by Alphascreen assay
SU-DHL-6 = test: Antiproliferative against activity human SU-DHL-6 cells assessed as inhibition of cell growth incubated for 72 hrs by Celltiter-luminescence analysis; type: functional, cell-based; conditions: SU-DHL-6, 72 h
SUD4 = test: Antiproliferative against activity human SU-DHL-4 cells assessed as inhibition of cell growth incubated for 72 hrs by Celltiter-luminescence analysis; type: functional, cell-based; conditions: SU-DHL-4, 72 h

PI3-kinase p110-delta/p85-alpha, sequence (P27986 whole entry): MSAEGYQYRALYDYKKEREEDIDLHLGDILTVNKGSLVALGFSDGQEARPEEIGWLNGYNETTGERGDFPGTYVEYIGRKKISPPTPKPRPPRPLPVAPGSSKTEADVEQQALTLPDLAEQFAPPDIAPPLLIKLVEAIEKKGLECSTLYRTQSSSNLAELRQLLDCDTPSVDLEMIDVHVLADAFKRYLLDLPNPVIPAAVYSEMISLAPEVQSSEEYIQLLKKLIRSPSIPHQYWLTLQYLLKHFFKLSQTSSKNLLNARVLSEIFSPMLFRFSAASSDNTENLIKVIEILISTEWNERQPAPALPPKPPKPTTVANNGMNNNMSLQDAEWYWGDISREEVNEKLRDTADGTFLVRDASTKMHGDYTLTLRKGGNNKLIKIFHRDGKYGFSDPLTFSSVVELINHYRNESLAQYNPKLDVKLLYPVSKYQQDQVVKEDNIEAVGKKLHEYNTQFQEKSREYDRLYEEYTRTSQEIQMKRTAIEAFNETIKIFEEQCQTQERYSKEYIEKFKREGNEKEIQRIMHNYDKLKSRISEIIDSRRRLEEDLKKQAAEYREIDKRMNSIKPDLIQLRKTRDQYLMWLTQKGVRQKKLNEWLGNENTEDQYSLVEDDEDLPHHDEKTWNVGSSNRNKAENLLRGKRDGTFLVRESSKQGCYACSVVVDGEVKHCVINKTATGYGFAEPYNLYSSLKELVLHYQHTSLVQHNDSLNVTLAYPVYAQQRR
PI3-kinase p110-delta/p85-alpha, sequence (O00329 whole entry): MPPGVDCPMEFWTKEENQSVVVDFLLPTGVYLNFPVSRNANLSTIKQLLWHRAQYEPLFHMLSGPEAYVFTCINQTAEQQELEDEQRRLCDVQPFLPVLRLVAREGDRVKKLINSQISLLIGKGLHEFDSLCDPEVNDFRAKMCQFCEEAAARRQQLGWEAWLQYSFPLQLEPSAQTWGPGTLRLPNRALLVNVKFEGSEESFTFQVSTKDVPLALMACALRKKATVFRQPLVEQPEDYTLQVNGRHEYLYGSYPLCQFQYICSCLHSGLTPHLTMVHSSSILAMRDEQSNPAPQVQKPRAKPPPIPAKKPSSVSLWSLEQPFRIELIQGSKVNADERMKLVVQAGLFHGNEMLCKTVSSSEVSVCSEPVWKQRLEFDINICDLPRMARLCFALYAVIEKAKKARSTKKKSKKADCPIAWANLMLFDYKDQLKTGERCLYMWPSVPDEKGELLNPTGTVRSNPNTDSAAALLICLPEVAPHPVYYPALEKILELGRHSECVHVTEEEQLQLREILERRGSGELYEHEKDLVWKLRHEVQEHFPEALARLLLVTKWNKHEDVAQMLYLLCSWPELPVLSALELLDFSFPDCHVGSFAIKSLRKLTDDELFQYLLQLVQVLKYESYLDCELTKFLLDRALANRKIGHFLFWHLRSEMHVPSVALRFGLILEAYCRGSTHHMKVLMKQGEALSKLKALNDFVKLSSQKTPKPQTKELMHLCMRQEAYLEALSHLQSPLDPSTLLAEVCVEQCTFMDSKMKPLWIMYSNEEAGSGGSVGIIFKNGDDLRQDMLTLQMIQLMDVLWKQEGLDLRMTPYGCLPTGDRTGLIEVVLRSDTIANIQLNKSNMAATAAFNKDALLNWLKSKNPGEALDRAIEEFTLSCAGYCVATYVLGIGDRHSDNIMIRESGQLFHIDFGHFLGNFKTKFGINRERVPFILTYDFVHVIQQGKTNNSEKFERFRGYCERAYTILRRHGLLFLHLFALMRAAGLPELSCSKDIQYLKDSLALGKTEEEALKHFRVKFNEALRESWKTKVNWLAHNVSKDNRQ

Row | Structure (SMILES) | inhibition [1] | inhibition [2] | IC50 [3] | IC50 [4] | IC50 (SU-DHL-6) | IC50 (SUD4)
1 | Cn1cc(-c2nc(N3CCOCC3)c3sc(CN4CCC(O)CC4)cc3n2)c2cc[nH]c2c1=O | 36% | 19.4% |  |  |  | 
2 | Cn1ccc(-c2nc(N3CCOCC3)c3sc(CN4CCN(CC5CC5)CC4)cc3n2)cc1=O | 4.6% | 24.1% |  |  |  | 
3 | C[C@H](O)C(=O)N1CCN(Cc2cc3nc(-c4cn(C)c(=O)c5[nH]ccc45)nc(N4CCOCC4)c3s2)CC1 | 39.9% | 33.2% | 206 nM | 11 nM |  | 
4 | CC(=O)N1CCN(Cc2cc3nc(-c4cn(C)c(=O)c5[nH]ccc45)nc(N4CCOCC4)c3s2)CC1 | 44.2% | 46.9% | 108 nM | 11 nM | 79 nM | 166 nM
5 | C[C@H](N)C(=O)N1CCN(Cc2cc3nc(-c4cn(C)c(=O)c5[nH]ccc45)nc(N4CCOCC4)c3s2)CC1 | 59.9% | 19.5% |  |  |  | 
6 | C[C@@H](N)C(=O)N1CCN(Cc2cc3nc(-c4cn(C)c(=O)c5[nH]ccc45)nc(N4CCOCC4)c3s2)CC1 | 56.8% | 16.2% |  |  |  | 
7 | Cn1cc(-c2nc(N3CCOCC3)c3sc(CN4CCN(C(=O)CO)CC4)cc3n2)c2cc[nH]c2c1=O | 35.2% | 28.8% |  |  |  | 
8 | Cn1cc(-c2nc(N3CCOCC3)c3sc(CN4CCN(C(=O)C(C)(C)O)CC4)cc3n2)c2cc[nH]c2c1=O | 32.6% | 20.1% |  |  |  | 
9 | Cn1cc(-c2nc(N3CCCCC3)c3sc(CN4CCN(CC5CC5)CC4)cc3n2)c2cc[nH]c2c1=O | 35% | 0.9% |  |  |  | 
10 | CNc1cc(-c2nc(N3CCOCC3)c3sc(CN4CCN(CC5CC5)CC4)cc3n2)cn(C)c1=O | 9.1% | 6% |  |  |  | 
11 | Cn1cc(-c2nc(N3CCOCC3)c3sc(CN4CCN(S(C)(=O)=O)CC4)cc3n2)c2cc[nH]c2c1=O | 32.7% | 45.7% | 96 nM | 15 nM | 270 nM | 665 nM
